Measurements taken from patent publication US20120177698A1, “AGGREGATES WITH INCREASED DEFORMABILITY, COMPRISING AT LEAST THREE AMPHIPATS, FOR IMPROVED TRANSPORT THROUGH SEMI-PERMEABLE BARRIERS AND FOR THE NON-INVASIVE DRUG APPLICATION IN VIVO, ESPECIALLY THROUGH THE SKIN” (priority 2002, published 2012).

Experiment: Barrier transport resistance, simple experimental method (SEM), filtration through 0.2 micrometer filter
Type: physicochemical
Settings: Examples 121-129; relative SDS concentration in SPC/Tween 80 bilayer; some uncertainty in the 2-6 mol % region
Description: In first approximation one relies on simple experimental method (SEM) and takes barrier transport resistance (in arbitrary units) to be proportional to the pressure (in arbitrary units) needed to drive a suspension of relatively large vesicles through a 0.2 micrometer filter with good efficacy. […] Barrier penetrability, which in older publications is called permeability, is identified with inverse barrier resistance value. […] Drug Delivery Rev. 18:349-378 (1996).
Transport (pore penetration) capability. […] The trend is enhanced by the presence of sodium dodecylsulphate in the mixed lipid aggregates. The later shifts the minimum amount of Tween needed to cross the semi-permeable barrier to increasingly lower relative concentration values.
Transport ability ([…] capability and adaptability) of aggregate suspension. To characterise the resistance of semi-permeable barrier to suspension flux (=transbarrier flux), the same method as in examples 1-120 was used. The resistance was measured as a function of relative SDS concentration in bilayer, to determine minimum amount of this latter surfactant that is needed to maximise suspension flux across the barrier and minimises the barrier transport resistance value. […] This is consistent with the results of first test series (examples 1-120) except in that the measured resistance values are now somewhat higher. […]

In the case of `CCCCCCCCCCCCOS(=O)(=O)[O-].[Na+]` [SDS, Sodium dodecylsulphate], the “threshold limit: minimum amount of SDS needed to minimise barrier transport resistance” value is reported as “around 6 mol-%”.
